PMC8037182, “Solvothermal Synthesis of Multiple Dihydropyrimidinones at a Time as Inhibitors of Eg5” (Molecules, 2021)

System: Caco-2 cell line
Experiment: Cytotoxicity MTS assay, Caco-2 cell line
Type: cell-based
Details: for OD490 Mean / OD490 Well 1 / OD490 Well 2 / OD490 Well 3: Caco-2 cell line; for IC50: MTS assay, 24 h exposure
Procedure: The positive compounds (IC50 < 100 μM) obtained from the primary Eg5 motor protein ATPase assay were tested for antiproliferative activity in vitro against Caco-2 cell line, Hela cell line, L929 cell line and T24 cell line by performing MTS assay. Cells were introduced into 96-well plates at a density of 1000 cells per well. After 24 h incubation, the cells were exposed with compounds at final concentrations ranging from 0.5 to 100 µM for 24 h. DMSO was used at a final concentration of 0.025% as blank control, monastrol was used as the positive control. Then 20 µL (CellTiter 96® AQueous One Solution Promega, Madison, WI, USA) reagent was added in each well. After 2 h at 37 °C in a 80% humidified, 5% CO2 atmosphere, the absorbance at 490 nm was recorded using a microplate reader (BIO-RAD iMark^TM). The results were obtained in three independent duplicate experiments. The primary data were shown in Supplementary Materials Tables S4–S7. The IC50 values for these compounds were calculated from a non-linear regression graph plotted between the percentage of cell viability and concentration with SPSS17.0 software.

For CCOC(=O)c1[nH]c(C2NC(=O)NC(C)=C2C(=O)Nc2ccccc2OC)c(C(=O)OC)c1C (centres unmarked) [D3], the “OD490 Mean” value (0.5μM, first assay) was 0.6387, the “OD490 Well 1” value (0.5μM, first assay) was 0.6262 and the “OD490 Well 2” value (0.5μM, first assay) was 0.6384. The “OD490 Well 3” value (0.5μM, first assay) was 0.6515, the “OD490 Mean” value (0.5μM, second assay) was 0.7146 and the “OD490 Well 1” value (0.5μM, second assay) was 0.7283. For the same compound, the “OD490 Well 2” value (0.5μM, second assay) was 0.7863, the “OD490 Well 3” value (0.5μM, second assay) was 0.6291 and the “OD490 Mean” value (0.5μM, third assay) was 0.6707. The “OD490 Well 1” value (0.5μM, third assay) was 0.6256, the “OD490 Well 2” value (0.5μM, third assay) was 0.6879 and the “OD490 Well 3” value (0.5μM, third assay) was 0.6985. The “OD490 Mean” value (1μM, first assay) was 0.6598, the “OD490 Well 1” value (1μM, first assay) was 0.6405 and the “OD490 Well 2” value (1μM, first assay) was 0.6612. The “OD490 Well 3” value (1μM, first assay) was 0.6777, the “OD490 Mean” value (1μM, second assay) was 0.6524 and the “OD490 Well 1” value (1μM, second assay) was 0.6596. The “OD490 Well 2” value (1μM, second assay) was 0.7226, the “OD490 Well 3” value (1μM, second assay) was 0.5749 and the “OD490 Mean” value (1μM, third assay) was 0.7014. The “OD490 Well 1” value (1μM, third assay) was 0.6954, the “OD490 Well 2” value (1μM, third assay) was 0.6888 and the “OD490 Well 3” value (1μM, third assay) was 0.7201. For the same compound, the “OD490 Mean” value (10μM, first assay) was 0.6769, the “OD490 Well 1” value (10μM, first assay) was 0.6754 and the “OD490 Well 2” value (10μM, first assay) was 0.6571. The “OD490 Well 3” value (10μM, first assay) was 0.6982, the “OD490 Mean” value (10μM, second assay) was 0.7108 and the “OD490 Well 1” value (10μM, second assay) was 0.7146. The “OD490 Well 2” value (10μM, second assay) was 0.7063, the “OD490 Well 3” value (10μM, second assay) was 0.7114 and the “OD490 Mean” value (10μM, third assay) was 0.7093. The “OD490 Well 1” value (10μM, third assay) was 0.6912, the “OD490 Well 2” value (10μM, third assay) was 0.7365 and the “OD490 Well 3” value (10μM, third assay) was 0.7003. For the same compound, the “OD490 Mean” value (25μM, first assay) was 0.6846, the “OD490 Well 1” value (25μM, first assay) was 0.6410 and the “OD490 Well 2” value (25μM, first assay) was 0.7249. The “OD490 Well 3” value (25μM, first assay) was 0.6880, the “OD490 Mean” value (25μM, second assay) was 0.6529 and the “OD490 Well 1” value (25μM, second assay) was 0.662. The “OD490 Well 2” value (25μM, second assay) was 0.6871, the “OD490 Well 3” value (25μM, second assay) was 0.6097 and the “OD490 Mean” value (25μM, third assay) was 0.6888. For the same compound, the “OD490 Well 1” value (25μM, third assay) was 0.6989, the “OD490 Well 2” value (25μM, third assay) was 0.6784 and the “OD490 Well 3” value (25μM, third assay) was 0.6891. The “OD490 Mean” value (50μM, first assay) was 0.7773, the “OD490 Well 1” value (50μM, first assay) was 0.7708 and the “OD490 Well 2” value (50μM, first assay) was 0.7874. For the same compound, the “OD490 Well 3” value (50μM, first assay) was 0.7736, the “OD490 Mean” value (50μM, second assay) was 0.7093 and the “OD490 Well 1” value (50μM, second assay) was 0.7521. The “OD490 Well 2” value (50μM, second assay) was 0.7258, the “OD490 Well 3” value (50μM, second assay) was 0.6501 and the “OD490 Mean” value (50μM, third assay) was 0.7169. For the same compound, the “OD490 Well 1” value (50μM, third assay) was 0.6532, the “OD490 Well 2” value (50μM, third assay) was 0.7354 and the “OD490 Well 3” value (50μM, third assay) was 0.7621. For the same compound, the “OD490 Mean” value (100μM, first assay) was 0.5588, the “OD490 Well 1” value (100μM, first assay) was 0.5950 and the “OD490 Well 2” value (100μM, first assay) was 0.5357. The “OD490 Well 3” value (100μM, first assay) was 0.5456, the “OD490 Mean” value (100μM, second assay) was 0.7013 and the “OD490 Well 1” value (100μM, second assay) was 0.7196. The “OD490 Well 2” value (100μM, second assay) was 0.6757, the “OD490 Well 3” value (100μM, second assay) was 0.7086 and the “OD490 Mean” value (100μM, third assay) was 0.7231. For the same compound, the “OD490 Well 1” value (100μM, third assay) was 0.7561, the “OD490 Well 2” value (100μM, third assay) was 0.7145 and the “OD490 Well 3” value (100μM, third assay) was 0.6987. The IC50 was over 150 µM.

For CCOC(=O)c1[nH]c(C2NC(=O)NC(C)=C2C(=O)Nc2ccccc2C)c(C(=O)OC)c1C (centres unmarked) [D4], the “OD490 Mean” value (0.5μM, first assay) was 0.5704, the “OD490 Well 1” value (0.5μM, first assay) was 0.5884 and the “OD490 Well 2” value (0.5μM, first assay) was 0.5582. The “OD490 Well 3” value (0.5μM, first assay) was 0.5647, the “OD490 Mean” value (0.5μM, second assay) was 0.5955 and the “OD490 Well 1” value (0.5μM, second assay) was 0.5407. For the same compound, the “OD490 Well 2” value (0.5μM, second assay) was 0.6416, the “OD490 Well 3” value (0.5μM, second assay) was 0.6041 and the “OD490 Mean” value (0.5μM, third assay) was 0.6609. The “OD490 Well 1” value (0.5μM, third assay) was 0.6698, the “OD490 Well 2” value (0.5μM, third assay) was 0.6201 and the “OD490 Well 3” value (0.5μM, third assay) was 0.6928. For the same compound, the “OD490 Mean” value (1μM, first assay) was 0.5753, the “OD490 Well 1” value (1μM, first assay) was 0.5948 and the “OD490 Well 2” value (1μM, first assay) was 0.5673. For the same compound, the “OD490 Well 3” value (1μM, first assay) was 0.5637, the “OD490 Mean” value (1μM, second assay) was 0.6402 and the “OD490 Well 1” value (1μM, second assay) was 0.6433. For the same compound, the “OD490 Well 2” value (1μM, second assay) was 0.6589, the “OD490 Well 3” value (1μM, second assay) was 0.6185 and the “OD490 Mean” value (1μM, third assay) was 0.6218. For the same compound, the “OD490 Well 1” value (1μM, third assay) was 0.6635, the “OD490 Well 2” value (1μM, third assay) was 0.6890 and the “OD490 Well 3” value (1μM, third assay) was 0.5129. The “OD490 Mean” value (10μM, first assay) was 0.5338, the “OD490 Well 1” value (10μM, first assay) was 0.5500 and the “OD490 Well 2” value (10μM, first assay) was 0.5282. For the same compound, the “OD490 Well 3” value (10μM, first assay) was 0.5233, the “OD490 Mean” value (10μM, second assay) was 0.5742 and the “OD490 Well 1” value (10μM, second assay) was 0.5277. The “OD490 Well 2” value (10μM, second assay) was 0.6414, the “OD490 Well 3” value (10μM, second assay) was 0.5536 and the “OD490 Mean” value (10μM, third assay) was 0.5630. For the same compound, the “OD490 Well 1” value (10μM, third assay) was 0.5899, the “OD490 Well 2” value (10μM, third assay) was 0.5614 and the “OD490 Well 3” value (10μM, third assay) was 0.5377. The “OD490 Mean” value (25μM, first assay) was 0.5869, the “OD490 Well 1” value (25μM, first assay) was 0.5783 and the “OD490 Well 2” value (25μM, first assay) was 0.5766. For the same compound, the “OD490 Well 3” value (25μM, first assay) was 0.6058, the “OD490 Mean” value (25μM, second assay) was 0.5033 and the “OD490 Well 1” value (25μM, second assay) was 0.5352. The “OD490 Well 2” value (25μM, second assay) was 0.4777, the “OD490 Well 3” value (25μM, second assay) was 0.4969 and the “OD490 Mean” value (25μM, third assay) was 0.5111. For the same compound, the “OD490 Well 1” value (25μM, third assay) was 0.5123, the “OD490 Well 2” value (25μM, third assay) was 0.4876 and the “OD490 Well 3” value (25μM, third assay) was 0.5333. The “OD490 Mean” value (50μM, first assay) was 0.5039, the “OD490 Well 1” value (50μM, first assay) was 0.4576 and the “OD490 Well 2” value (50μM, first assay) was 0.5055. The “OD490 Well 3” value (50μM, first assay) was 0.5485, the “OD490 Mean” value (50μM, second assay) was 0.4399 and the “OD490 Well 1” value (50μM, second assay) was 0.41. The “OD490 Well 2” value (50μM, second assay) was 0.4612, the “OD490 Well 3” value (50μM, second assay) was 0.4486 and the “OD490 Mean” value (50μM, third assay) was 0.4077. The “OD490 Well 1” value (50μM, third assay) was 0.4412, the “OD490 Well 2” value (50μM, third assay) was 0.4698 and the “OD490 Well 3” value (50μM, third assay) was 0.3120. For the same compound, the “OD490 Mean” value (100μM, first assay) was 0.3850, the “OD490 Well 1” value (100μM, first assay) was 0.4202 and the “OD490 Well 2” value (100μM, first assay) was 0.3796. For the same compound, the “OD490 Well 3” value (100μM, first assay) was 0.3553, the “OD490 Mean” value (100μM, second assay) was 0.3934 and the “OD490 Well 1” value (100μM, second assay) was 0.4418. For the same compound, the “OD490 Well 2” value (100μM, second assay) was 0.3643, the “OD490 Well 3” value (100μM, second assay) was 0.3741 and the “OD490 Mean” value (100μM, third assay) was 0.4011. The “OD490 Well 1” value (100μM, third assay) was 0.3698, the “OD490 Well 2” value (100μM, third assay) was 0.4013 and the “OD490 Well 3” value (100μM, third assay) was 0.4321. The IC50 was 80.5 µM.
